Experimental data published in patent US20100240589A1, “DIASTEREOMERIC PEPTIDES USEFUL AS INHIBITORS OF MEMBRANE PROTEIN ASSEMBLY” (YEDA RESEARCH AND DEVELOPMENT CO., LTD. AT THE WEIZMANN …, priority 2003, published 2010).
Where two headings read alike, the source gives them in different places. Ends that are not written are not given here.

Key:
[1] = system: CP362 containing pNT201
[2] = system: fusion of HIV-1 gp120-41 expressing TF228 cells with CD4+CXCR4+3T3 mouse fibroblasts; experiment: Dye transfer fusion assay (cell-cell fusion); assay type: cell-based; settings: for inhibition of HIV-1 mediated cell-cell fusion: dye transfer, co-culture 2 hours at 37° C.; for inhibition compared with the wild-type peptide: dye transfer fusion assay
Method: Peptide inhibition of cell-cell fusion was assayed by monitoring the redistribution of two fluorescent probes: a water-soluble probe and a lipophilic probe, between target and effector cells upon their co-incubation with these probes (Munoz-Barroso I., et al., 1998, J. Cell Biol. 140: 315-323). The HIV-1 gp120-41 expressing TF228 cells (Jonak, Z. L., et al., 1993, AIDS Res. Hum. Retrovir. 9:23-32) were labeled with either calcein or a green fluorescent fatty acid as follows: HIV-1 gp120-41 expressing TF228 cells were incubated with 1 μM calcein for 60 minutes at 37° C., and then washed and resuspended at 10^5 cells/ml in RPMI medium. Alternatively, the HIV-1 gp120-41 expressing TF228 cells were labeled with the fatty acid 4,4-difluoro-5-methyl-4-bora-3a, 4a-diaza-s-indacene-3-dodecanoic acid (C1-BODIPY-C12; (Molecular Probes, Eugene, Oreg.)) as follows: HIV-1 gp120-41 expressing TF228 cells were seeded at 10^5 cells/ml in RPMI medium containing 10 mg/ml of the C1-BODIPY-C12 and grown for three days prior to the experiment. The fatty acid was eventually metabolized into phospholipid, primarily phosphatidylcholine. The cells where then washed and resuspended at 10^5 cells/ml. The target cells, CD4+CXCR4+3T3 mouse fibroblasts, were plated at 10^5 cells/ml the night before the experiment. The next day, the CD4+CXCR4+3T3 cells were labeled with 20 μM [5-(and -6) ((4-Chloromethyl)benzoyl)amino)) tetramethylrhodamine (CMTMR) for one hour at 37° C., washed several times and combined with the effector cells (1:3 target-effector cell ratio). Different concentrations of peptides, dissolved in PBS or Tris buffer, were then added. The cells were co-cultured for 2 hours at 37° C. in 12 well plates (Costar, Cambridge, Mass.). Phase and fluorescent images were collected using an Olympus IX70 coupled to a CCD camera (Princeton Instruments, Trenton, N.J.) with a 20× objective lens. An 82000 optical filter cube (Chroma Technology Corp., Brattleboro, Vt.) was used for the excitation of calcein (494/517), BODIPY (500/510), and CMTMR (541/565). Three images per well were collected and then analyzed using metamorph software (Universal Imaging, WestChester, Pa.) for dye transfer from the donor to the acceptor cell. The scoring of fusion events was conducted as described by Munoz-Barroso et al. (ibid.).

[3] = target: wt-fusion peptide (N-terminal 33 segment of gp41) (Human immunodeficiency virus type 1 group M subtype B, UniProt P03377); settings: NBD-wt donor 0.05 μM, Rho acceptor 0.025-0.35 μM, SUV 400 μM
Method: The self-association of the peptides in their membrane-bound state was monitored by employing resonance energy transfer measurements. Fluorescence resonance energy transfer was measured using NBD-labeled peptides serving as donors and Rho (rhodamine)-labeled peptides serving as energy acceptors. Fluorescence spectra were obtained at room temperature with excitation set at 467 nm using a 10 nm slit width. In a typical experiment, donor peptide (final concentration 0.04 μM) was added to a dispersion of phosphatidylcholine/cholesterol (PC/Chol; 10:1 w/w) small unilamellar vesicles (SUV; 224 μM) in PBS, followed by the addition of acceptor peptide in several sequential doses. Fluorescence spectra were obtained before and after addition of the acceptor. The efficiency of energy transfer (E) was determined by measuring the decrease in the quantum yield of the donor as a result of the presence of acceptor. E was determined experimentally from the ratio of the fluorescence intensities of the donor in the presence (Ida) and in the absence (Id) of the acceptor, at the donor's maximum emission wavelength. The percentage of transfer efficiency (E), is given by:
The contribution of buffer and vesicles was subtracted from all measurements. […] The acceptor-peptide was added only after the donor-peptide was already bound to the membrane, thus decreasing association in solution. […]

[4] = system: activated T-cells; experiment: Binding of NBD-labeled fusion peptides to T-cells (confocal fluorescence microscopy); assay type: cell-based; parameters: dose or concentration left out as unconfirmed; settings: 30 minutes, room temperature
Method: Nitrobenzofurazane (NBD)-labeled wt-fusion peptide or NBD-labeled diastereomeric fusion peptide (herein designated IFFA) were studied for their binding to activated T-cells as follows: Activated T-cells (10,000/ml) were incubated for 30 minutes at room temperature with NBD labeled wt- or IFFA-fusion peptides (0.5 mM final concentration). The cells were washed twice with PBS (100 ml) in order to remove excess of unbound peptide. The cells were then observed under the fluorescent confocal microscope. NBD excitation was at 488 nm with the laser set at 2% power to prevent bleaching of the fluorophore. Fluorescence data was collected from 525 nm and up.

[5] = system: ToxR GPA construct in FHK12 bacteria; experiment: ToxR receptor expression levels (Western blot); assay type: cell-based; settings: anti maltose binding protein
Method: Bacteria FHK12 cells were grown in the presence or absence of 2D-GPA, 10 μl samples were added to 2× sample buffer and boiled for 5 minutes. The samples were separated on a 12% SDS-PAGE and thereafter were blotted. The primary antibody used was anti maltose binding protein. The detection was performed with Phototope-HRP Western Blot Detection System (Cell Signaling Technology, MA, USA).

[6] = system: FHK12 bacterial membrane; experiment: Binding of NBD labeled peptide to bacterial membrane (confocal); assay type: cell-based; settings: NBD labeled peptide 500 nM
Method: The binding of 2D-GPA to the membrane of the FHK12 bacteria is a prerequisite for the interaction between the peptide and the GPA ToxR construct. In order to verify this binding, the bacteria were observed under a confocal microscope in the absence or presence of a NBD labeled 2D-GPA peptide at a 500 nM concentration. Experiments were done as follows: FHK12 bacteria were diluted 1:10000 and incubated with NBD labeled 2D-GPA, final concentration of 500 nM, for 30 seconds. Samples were fixed with Glutaraldehyde at a final concentration of 0.001% for 30 seconds, centrifuged and washed 3 times with fresh PBS. Confocal images were obtained using an Olympus IX70 FV500 confocal laser-scanning microscope. […] The confocal images were obtained at 12-bit resolution.

[7] = system: ToxR GPA (GPA transmembrane domain); experiment: ToxR GPA heterodimer formation (β-galactosidase reporter); assay type: cell-based
Method: The ToxR GPA plasmid construct is a simple and robust method for detecting homodimerization of transmembrane domains in vivo (Langosch, D., et al., 1996, J. Mol. Biol. 263: 525-530). The detection is done through the signal of a β-galactosidase reporter gene. Heterodimerization can be detected through addition of an exogenous peptide. […] The 2D-GPA peptide of SEQ ID NO:11 was exogenously added to the system in increasing doses (0.5-20 μM; FIG. 5). […] The inhibition was calculated as follows: I is the inhibitory ability of the peptide, Apeptide is the activity of ToxR-GPA in the presence of the peptide, Amax is the maximal activity of ToxR-GPA without peptide, and Abaseline is the baseline activity of the monomer A16 plasmid, a plasmid containing a peptide which consists of 16 amino acids all of which are alanine (Langosch, D., et al., 1996, J. Mol. Biol. 263: 525-530).
IC50 was calculated by fitting normalized data to the Langmuir equation (equation 3) in the Origin 6.0 commercial program.
Were A represents ToxR-GPA transcription factor, B represents the exogenous peptide, I represents inhibition of beta-galactosidase activity (1-activity) and K is a scaling constant.

[8] = target: T1, wt-GPA (Homo sapiens, UniProt P02724); experiment: FRET between wt-GPA and diastereomer in LUV; assay type: binding; settings: donor 0.1 μM, acceptor 0.01-0.05 μM, LUV 340 μM
T1 construct: ITLIIFGVMAGVIGT; fluorophore label (NBD); made in house; host or cells: chemical peptide synthesis
Method: Wild type (wt)-GPA and the 2D-GPA analog were synthetically labeled with Rhodamine and NBD, respectively, and fluorescent resonance energy transfer (FRET) experiments were performed with NBD-labeled peptides serving as energy donors and Rhodamine-labeled peptides serving as energy acceptors. […] In a typical experiment, a donor peptide (final concentration 0.1 μM) was added to a dispersion of large unilamellar vesicles (LUV; 340 μM) in PBS. This was followed by the addition of an acceptor peptide in increasing doses ranging from 0.01 to 0.05 μM. At this peptide to lipid ratios, complete membrane binding is expected for all the transmembrane peptides. […] The percentage of transfer efficiency (E), is given by:
The R0 for this pair of donor-acceptor fluorophores is around 51 Å.

[9] = system: Tar-1 TM domain (ToxR-MalE chimera); settings: different concentrations of exogenous peptide, FIG. 9
Source text: The ToxR transcription activator can be used successfully to assess weak protein-protein interactions within the E. coli membrane. A Tar-1 TM domain encoding the DNA cassette was grafted between the ToxR transcription activator and the maltose binding protein in the ToxR-MalE plasmid. The plasmid was then transformed into E. coli FHK12 cells, which contain β-galactosidase, under the control of a ctx promoter. Dimerization of the TM domains, in this system, results in association and activation of the ToxR transcription activator, which then becomes active and is able to bind the ctx promoter. Quantification of the amount of homo-dimerization was done by measuring the activity of the β-galactosidase reporter gene and by normalizing it to the cell content (OD590) (miller units)
The ability of the Tar-1 peptides to disrupt the proper dimerization of the wild-type transmembrane (TM) domain was thus investigated by using the ToxR system. This TM assembly system can assess the dimerization of a specific TM domain grafted between the ToxR transcription activator and the maltose binding protein, MalE. […] The TM-TM interactions were monitored by measuring the activity of β-galactosidase in the presence of different concentrations of exogenous Tar-1 analog peptides.

[10] = target: Tar-1 all-L NBD peptide (Escherichia coli, UniProt P07017); settings: donor Tar-1 all-L NBD peptide; acceptor-to-lipid ratio of 1:7500; PE/PG SUV
Method: To investigate the direct interaction between the two enantiomers of Tar-1 in an isolated in vitro system, fluorescence energy transfer (FRET) between fluorescently labeled Tar-1 wild-type peptide and its diastereomeric analog was measured. The assay was performed in a model lipid environment of small unilamellar vesicles (SUV) composed of negatively charged PE/PG lipids (7:3 w/w). This phospholipid composition is typical of the E. coli inner membrane. The Tar-1 peptides were labeled with NBD as the donor fluorophore or rhodamine-TAMRA as the acceptor fluorophore, and FRET was measured.

[11] = system: HIV1 gp41 mediated viral fusion; settings: literature; cited from earlier work

O=C(N[C@H](CO)[C@H](O)c1ccc([N+](=O)[O-])cc1)C(Cl)Cl [chloramphenicol]
cell density (growth) of the bacteria [1]: zero growth

AVGIGALF [8-mer wild-type control peptide, reference compound]
inhibition of HIV-1 mediated cell-cell fusion [2]: completely devoid of inhibitory effect

AVGIGALFLGFLG [reference compound]
inhibition of HIV-1 mediated cell-cell fusion [2]: completely devoid of inhibitory activity

AVGIGALFLGFLGAAGSTMGARSMTLTVQARQL [IFFA]
association with wt-fusion peptide (energy transfer) [3]: associate with the wt-fusion peptide
concentration showing significant inhibitory effect on cell-fusion ([2]; FIG. 2): 10 ng/mL
inhibition compared with the wild-type peptide [2]: identical to that of the wild-type (wt) fusion peptide

AVGIGALFLGFLGAAGSTMGARSMTLTVQARQL [wt-fusion peptide]
binding to T-cells [4]: high affinity binding to T-cells

D-L^669, W^670-DP178 [[D-LW]-DP178]
inhibition compared with the wild-type peptide [2]: more active than the wild-type DP178
inhibition of HIV-1 mediated cell-cell fusion [2]: inhibited the fusion

D-S^649, Q^650-DP178 [[D-SQ]-DP178]
inhibition of HIV-1 mediated cell-cell fusion [2]: completely inactive

FFGAVIGTIALGVATSAQITAGIALAEAREAKR [fusion peptide of Sendai virus, reference compound]
inhibition of HIV-1 mediated cell-cell fusion [2]: completely devoid of inhibitory activity

ITLIIFGVMAGVIGT [2D-GPA, GPA transmembrane domain analog, L-valines at positions 80 and 84 replaced by their D-enantiomer]
effect on expression levels of the ToxR GPA construct [5]: no significant differences were detected
localization in FHK12 bacteria [6]: localized in the bacterial membrane
inhibition of ToxR GPA homodimer signal ([7]; exogenous peptide 0.5-20 μM): concentration dependent inhibitory effect
IC50 ([7]; extrapolated from the fit to Langmuir equation, read-out: IC50 of the interaction with the integral GPA transmembrane domain): 290 nM
fluorescence energy transfer with wt-GPA [8]: fluorescence energy transfer increased

KKITLIIFGVMAGVIGT (also: D-amino acids, which not given here) [SEQ ID NO:12, another diastereomeric GPA peptide]
effect on expression levels of the ToxR GPA construct [5]: did not affect the expression levels

KKITLIIFGVMAGVIGT [all L GPA, reference compound]
IC50 ([7]; previous all L and all D GPA results fitted to this model, read-out: IC50 of the interaction with the GPA transmembrane domain): 360 nM

KKKMVLGVFALLQLISGSLKK (KKKMVLGVFALLQLISGSLKK-NH2; also: D-amino acids, which not given here) [Tar-1 diastereomer]
inhibition of Tar-1 TM domain dimerization (β-galactosidase activity) [9]: interfered with the proper dimerization
energy transfer [10]: about 30%

KKKMVLGVFALLQLISGSLKK [Tar-1 all-L, reference compound]
inhibition of Tar-1 TM domain dimerization (β-galactosidase activity) ([9]; listed as Tar-1 all-L peptide): inhibition profile similar to its diastereomeric counterpart

enfuvirtide
inhibition of viral fusion [11]: competent inhibitors of viral fusion
